These results are taken from the OligoGym collection.

Several values for one entry are separate records, joined by “and”; a condition that tells them apart may be missing. Identical values can stand only once. HELM strings list units from the 5' end as sugar, base in round brackets, then linkage (d deoxyribose, r ribose, m 2'-O-methyl, p phosphodiester). Methylation of C is not given here. [moe] = 2'-O-(2-methoxyethyl) (MOE); [cEt] = constrained ethyl (cEt); [sp] = phosphorothioate linkage

The target of the series is HBV. The note with it: ASO.

Take “RNA1{[moe](C)[sp].[moe](G)[sp].[moe](C)[sp].[moe](A)[sp].[moe](G)[sp].[moe](T)[sp].d(A)[sp].d(T)[sp].d(G)[sp].d(G)[sp].d(A)[sp].d(T)[sp].d(C)[sp].d(G)[sp].d(G)[sp].[moe](C)[sp].[moe](A)}$$$$V2.0”: the target mRNA inhibition is 10% (HepG2, 0.0092593 µM); 35% (HepG2, 0.0277778 µM); 83% and 70% (HepG2, 0.07 µM); 44% (HepG2, 0.0833333 µM); 76% (HepG2, 0.25 µM). As for “RNA1{[moe](A)[sp].[moe](G)[sp].d(G)[sp].d(A)[sp].d(G)[sp].d(T)[sp].d(T)[sp].d(C)[sp].d(C)[sp].d(G)[sp].d(C)[sp].[moe](A)[sp].[moe](G)[sp].[moe](T)[sp].[moe](A)[sp].[moe](T)}$$$$V2.0”, the target mRNA inhibition (HepG2, 0.07 µM) was 50% and 37%. Turning to “RNA1{[moe](A)[sp].[moe](C)[sp].d(T)[sp].d(G)[sp].d(G)[sp].d(A)[sp].d(G)[sp].d(C)[sp].d(C)[sp].d(A)[sp].d(C)[sp].[moe](C)[sp].[moe](A)[sp].[moe](G)[sp].[moe](C)[sp].[moe](A)}$$$$V2.0”, the target mRNA inhibition (HepG2, 0.07 µM) is 53% and 42%.

As to “RNA1{[moe](T)[sp].[cEt](G)[sp].[cEt](G)[sp].d(A)[sp].d(G)[sp].d(C)[sp].d(C)[sp].d(A)[sp].d(C)[sp].d(C)[sp].d(A)[sp].d(G)[sp].d(C)[sp].[cEt](A)[sp].[cEt](G)[sp].[moe](G)}$$$$V2.0”, the target mRNA inhibition (HepG2, 0.07 µM) was 57% and 53%. In the case of “RNA1{[moe](A)[sp].[moe](G)[sp].[moe](A)[sp].[moe](T)[sp].[moe](G)[sp].d(A)[sp].d(G)[sp].d(G)[sp].d(C)[sp].d(A)[sp].d(T)[sp].d(A)[sp].d(G)[sp].d(C)[sp].[moe](A)[sp].[moe](G)}$$$$V2.0”, the target mRNA inhibition (HepG2, 0.07 µM) was 41% and 31%. Regarding “RNA1{[moe](T)[sp].[moe](T)[sp].[moe](T)[sp].d(A)[sp].d(T)[sp].d(G)[sp].d(C)[sp].d(C)[sp].d(T)[sp].d(A)[sp].d(C)[sp].d(A)[sp].[moe](G)[sp].[moe](C)[sp].[moe](C)[sp].[moe](T)[sp].[moe](C)}$$$$V2.0”, under “HepG2, 0.07 µM”, the target mRNA inhibition is 62% and 49%. Regarding “RNA1{[moe](T)[sp].[cEt](G)[sp].[cEt](A)[sp].d(A)[sp].d(C)[sp].d(A)[sp].d(A)[sp].d(A)[sp].d(T)[sp].d(G)[sp].d(G)[sp].d(C)[sp].d(A)[sp].[cEt](C)[sp].[cEt](T)[sp].[moe](A)}$$$$V2.0”, the target mRNA inhibition (HepG2, 0.07 µM) is 71% and 59%.

“RNA1{[moe](A)[sp].[moe](G)[sp].d(T)[sp].d(T)[sp].d(C)[sp].d(C)[sp].d(G)[sp].d(C)[sp].d(A)[sp].d(G)[sp].d(T)[sp].[moe](A)[sp].[moe](T)[sp].[moe](G)[sp].[moe](G)[sp].[moe](A)}$$$$V2.0”: for the setting “HepG2, 0.07 µM”, the target mRNA inhibition is 63% and 64%. Same read-out and setting: under “RNA1{[moe](A)[sp].[cEt](G)[sp].[cEt](G)[sp].d(C)[sp].d(A)[sp].d(T)[sp].d(A)[sp].d(G)[sp].d(C)[sp].d(A)[sp].d(G)[sp].d(C)[sp].d(A)[sp].[cEt](G)[sp].[cEt](G)[sp].[moe](A)}$$$$V2.0” stands 72% and 70%; under “RNA1{[moe](G)[sp].[moe](A)[sp].d(G)[sp].d(G)[sp].d(C)[sp].d(A)[sp].d(T)[sp].d(A)[sp].d(G)[sp].d(C)[sp].d(A)[sp].[moe](G)[sp].[moe](C)[sp].[moe](A)[sp].[moe](G)[sp].[moe](G)[sp].[moe](A)}$$$$V2.0”, 64% and 47%. Regarding “RNA1{[moe](G)[sp].[moe](T)[sp].[moe](G)[sp].d(C)[sp].d(A)[sp].d(G)[sp].d(A)[sp].d(G)[sp].d(G)[sp].d(T)[sp].d(G)[sp].d(A)[sp].[moe](A)[sp].[moe](G)[sp].[moe](C)[sp].[moe](G)[sp].[moe](A)}$$$$V2.0”, under “HepG2, 0.07 µM”, the target mRNA inhibition was 67% and 62%.

Take “RNA1{[moe](G)[sp].[moe](A)[sp].d(A)[sp].d(C)[sp].d(T)[sp].d(G)[sp].d(G)[sp].d(A)[sp].d(G)[sp].d(C)[sp].d(C)[sp].[moe](A)[sp].[moe](C)[sp].[moe](C)[sp].[moe](A)[sp].[moe](G)[sp].[moe](C)}$$$$V2.0”: the target mRNA inhibition (HepG2, 0.07 µM) is 70% and 69%.
